Test results taken from patent US20220062233A1 (The Board of Trustees of the Leland Stanford Junior …, priority 2018, published 2022).

Key:
[1] = test system: Huntington's disease patient iPSCs (ND50036); assay: iPSC viability at IC20; type: cell-based, human; conditions: at the concentration of IC20
[2] = test system: mutant HTT; assay: Mutant HTT assay in induced pluripotent stem cells (iPSC); type: cell-based, human; conditions: HD patient iPSCs, one day incubation; class symbols; read-out: iPSC IC20 (nM) mHTT
Method in brief: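 Huntington's disease patient iPSCs (ND50036) plated at 7,000 cells/well, compound-treated after 48 h for one day in mTeSR1. Lysates normalised by BCA protein, then mutant HTT measured by sandwich ELISA: anti-human HTT capture, biotinylated mutant-HTT-specific detection, streptavidin-HRP/TMB colorimetric readout, interpolated from a standard curve.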

[3] = In vivo pharmacokinetics and brain penetration, single dose, mouse; conditions: for clearance / half-life / Vd / Cmax: C57BL6, blood; for clearance / half-life / Vd: intravenous, 0.5 mg/kg; for clearance / half-life / Vd / Cmax / Kp / Fabs (%): Mouse; for clearance / half-life / Vd / Cmax / Kp: single dose; for half-life: read-out: Elimination Half-life (converted); for Vd: read-out: Vdss; for Cmax: oral, 5 mg/kg, read-out: Cmax (maximum concentration in blood or plasma); for Kp: C57BL6, brain / blood, averaged over collection time points, read-out: BB_Ratios (brain-to-blood concentration ratio); for Fabs (%): single dose IV/PO
Protocol: (§1) B. In Vivo Pharmacokinetics and Brain Penetration
(§2) The pharmacokinetic assessment was carried out in rodents (e.g. Sprague-Dawley rats or C57BL6 mice) after a single dose administration by IV (e.g., 0.5 mg/kg) or PO (e.g., 5 mg/kg). Biological samples were collected at pre-determined time points, batch-processed, and the test articles were extracted and quantified with LC-MS, utilizing internal standards and separately prepared calibration curves. Blood (or plasma) concentration to time profiles were acquired for compounds and a selected list is presented in Table 6 with the non-compartmental PK parameters (e.g., peak concentration in circulation (Cmax), absolute bioavailability (Fabs), elimination half-life, clearance (CL), and volume of distribution at steady state (Vdss)). Upon terminal collection, the brains were also collected and homogenized in an extraction buffer, followed by quantification with LC-MS. After brain concentration levels (ng/g of brain tissue) were determined, the mean ratios of the brain-to-blood (BB) concentration (or brain-to-plasma concentration) at various collection time points were averaged, then shown in Table 6 as BB Ratio to indicate the extent of brain penetration.
FIG. 1A is a graph showing in vitro mouse hepatocyte stability on compound #2 (closed circle) and compound #42 (open circle). FIG. 1B is a graph showing blood concentration-time profile of mouse (N=3 per group) after IV administration of 0.5 mg/kg of compound #2 (closed circle) or #42 (open circle), or PO administration of 5 mg/kg of compound #2 (closed triangle) or #42 (open triangle).

[4] = In vivo pharmacokinetics and brain penetration, single dose, rat
Protocol: as §1, §2

[5] = test system: Gmr::HTT97Q fly (mutant HTT, rough eye); assay: HD-Drosophila phenotypic assay (rough eye analysis); type: in vivo, Drosophila melanogaster; conditions: Gmr-HTT97Q flies, compound 10 μM in media
Source text: D. Alleviation of Neuron Degeneration Phenotypes of Mutant HTT in Drosophila HD Models
The Drosophila melanogaster (fruit fly) HD models carry the coding sequence of human HTT exon1 with 97 CAG repeats to mimic mutant HTT of Huntington's disease (HD). The Gmr::HTT97Q fly, expressing mutant HTT primarily in the neurons of Drosophila compound eyes, has a severe degeneration of photoreceptor neurons and the phenotypic trait ‘rough eye’. All of the fly stocks and genetics crosses are maintained at 25° C. on standard cornmeal yeast agar media.
b. Eye Morphology (Rough Eye) Analysis
Fifteen adult male flies (Gmr-HTT97Q/Gmr-HTT97Q or Gmr/Gmr) are crossed with 15 virgin female flies W1118(+/+) in a vial containing standard yeast agar media with the compound in a concentration of 10 μM. Parent-flies are removed from vials at day 7, followed by a collection of newly hatched flies for ‘rough eye’ analysis. The morphology of compound eyes is captured using a Leica DMR upright microscope equipped with a digital camera (CoolSNAP 5.0, Photometrics). To increase the depth of field, imaging software is used to create montage composite images (Helicon Focus, HeliconSoft). A total of 10 flies are collected for analysis in each individual condition, and the biological experiment is conducted three times. DMSO, the reagent solvent of the compound, is included as a control.

[6] = mouse, PO 5 mg/kg, compound #42 versus #2

SMILES | iPSC viability at IC20 [1] | IC20 [2] [nM] | clearance [3] [mL/min/kg] | half-life [3] [h] | Vd [3] [L/kg] | Cmax [3] [nM] | Kp [3] | Fabs (%) [3] | Kp ([4]; Sprague-Dawley, brain / blood, single dose, averaged over collection time points, read-out: BB_Ratios (brain-to-blood concentration ratio)) | clearance ([4]; Sprague-Dawley, in vivo, intravenous, single dose) [mL/min/kg] | Vd ([4]; Sprague-Dawley, in vivo, intravenous, single dose, read-out: Vdss) [L/kg] | Cmax ([4]; Sprague-Dawley, in vivo, single dose, read-out: Cmax (maximum concentration in blood or plasma)) [nM] | half-life ([4]; Sprague-Dawley, in vivo, single dose, read-out: Elimination Half-life (converted)) [h] | Fabs (%) ([4]; single dose IV/PO) | HD-Drosophila Phenotypic assay (rescue of rough eye phenotype) [5] | elimination half-life (comparison) ([3]; mouse, IV 0.5 mg/kg, compound #42 versus #2, FIG. 1B) | Cmax (comparison) [3, 6] | Fabs (comparison) [3, 6] | CL (comparison) ([3]; mouse, randomized cross-over after 48-hour washout, compound #42 versus #2)
OCCOCc1ccc(CN[C@@H]2CCCc3c2[nH]c2ccc(Br)cc32)cc1 (single isomer, unassigned) [Compound 28] | + (cell viability is greater than 75% at the concentration of IC20) | < 100 | 16.7 | 2.4 | 3.3 | > 300 | ≥ 1 | >70% | – | – | – | – | – | – | – | – | – | – | –
OCc1ccc(CNC2CCCc3c2[nH]c2ccc(Br)cc32)cc1 (centres unmarked) [Compound 1] | – | – | – | – | – | – | – | – | ≥ 1 | 85 | 12 | 100 to 300 | 1.9 | <30 | & (rough eye phenotype of HD flies is rescued by testing compound greater than 40%) | – | – | – | –
OCc1ccc(CN[C@@H]2CCCc3c2[nH]c2ccc(Br)cc32)cc1 [Compound 2, (R)-(4-(((6-bromo-2,3,4,9-tetrahydro-1H-carbazol-1-yl)amino)methyl)phenyl)methanol] | + (cell viability is greater than 75% at the concentration of IC20) | < 100 | 183 | 0.8 | 11 | < 100 | – | <30% | – | – | – | – | – | – | & (rough eye phenotype of HD flies is rescued by testing compound greater than 40%) | – | – | – | –
CC(C)(O)c1ccc(CN[C@@H]2CCCc3c2[nH]c2ccc(Br)cc32)cc1 [Compound 31, (R)-2-(4-(((6-bromo-2,3,4,9-tetrahydro-1H-carbazol-1-yl)amino)methyl)phenyl)propan-2-ol] | + (cell viability is greater than 75% at the concentration of IC20) | < 100 | 50 | 2.6 | 9.1 | 100 to 300 | ≥ 1 | 30-70% | – | – | – | – | – | – | – | – | – | – | –
[2H]C([2H])(O)c1ccc(CN[C@@H]2CCCc3c2[nH]c2ccc(Br)cc32)cc1 [Compound 42, (R)-(4-(((6-bromo-2,3,4,9-tetrahydro-1H-carbazol-1-yl)amino)methyl)phenyl)methan-d2-ol] | + (cell viability is greater than 75% at the concentration of IC20) | < 100 | 80 | 1.2 | 7.2 | 100 to 300 | – | <30% | – | – | – | – | – | – | – | longer | significantly increased | significantly increased | slower CL
CS(=N)(=O)c1ccc(CN[C@@H]2CCCc3c2[nH]c2ccc(Br)cc32)cc1 (stereo partly drawn) [Compound 49, (4-((((R)-6-bromo-2,3,4,9-tetrahydro-1H-carbazol-1-yl)amino)methyl)phenyl)(imino)(methyl)-λ^6-sulfanone] | + (cell viability is greater than 75% at the concentration of IC20) | < 100 | 55 | 1.1 | 5.1 | > 300 | ≥ 1 | <30% | – | – | – | – | – | – | – | – | – | – | –
